The source made the active and inactive calls. The calls are words filed in the database; no cut-off is given here.
How the values were obtained:
B16 [1] = experiment: Growth inhibition of mouse B16 cells incubated for 48 hrs by MTT assay; type: functional; details: for GI50: B16, 48 h
Homo sapiens = organism: Homo sapiens; experiment: Selectivity index, ratio of IC50 for human recombinant HDAC1 to IC50 for human recombinant HDAC6
B16 [2] = experiment: Inhibition of Class 1 histone deacetylase in mouse B16 cells assessed as increase in histone H3 acetylation at 10 uM incubated for 24 hrs by Western blotting; type: cell-based
B16 [3] = experiment: Inhibition of Class 1 histone deacetylase in mouse B16 cells assessed as increase in histone H3 acetylation at 1 uM incubated for 24 hrs by Western blotting; type: cell-based
B16 [4] = experiment: Inhibition of Class 1 histone deacetylase in mouse B16 cells assessed as increase in histone H3 acetylation at 1 to 100 nM incubated for 24 hrs by Western blotting; type: cell-based
[5] = target: T1, Protein deacetylase HDAC6 (Mus musculus) (UniProt Q9Z2V5); experiment: Inhibition of HDAC6 in mouse B16 cells assessed as increase in acetyl alpha-tubulin level incubated for 24 hrs by Western blotting; type: cell-based
T1 sequence (whole entry): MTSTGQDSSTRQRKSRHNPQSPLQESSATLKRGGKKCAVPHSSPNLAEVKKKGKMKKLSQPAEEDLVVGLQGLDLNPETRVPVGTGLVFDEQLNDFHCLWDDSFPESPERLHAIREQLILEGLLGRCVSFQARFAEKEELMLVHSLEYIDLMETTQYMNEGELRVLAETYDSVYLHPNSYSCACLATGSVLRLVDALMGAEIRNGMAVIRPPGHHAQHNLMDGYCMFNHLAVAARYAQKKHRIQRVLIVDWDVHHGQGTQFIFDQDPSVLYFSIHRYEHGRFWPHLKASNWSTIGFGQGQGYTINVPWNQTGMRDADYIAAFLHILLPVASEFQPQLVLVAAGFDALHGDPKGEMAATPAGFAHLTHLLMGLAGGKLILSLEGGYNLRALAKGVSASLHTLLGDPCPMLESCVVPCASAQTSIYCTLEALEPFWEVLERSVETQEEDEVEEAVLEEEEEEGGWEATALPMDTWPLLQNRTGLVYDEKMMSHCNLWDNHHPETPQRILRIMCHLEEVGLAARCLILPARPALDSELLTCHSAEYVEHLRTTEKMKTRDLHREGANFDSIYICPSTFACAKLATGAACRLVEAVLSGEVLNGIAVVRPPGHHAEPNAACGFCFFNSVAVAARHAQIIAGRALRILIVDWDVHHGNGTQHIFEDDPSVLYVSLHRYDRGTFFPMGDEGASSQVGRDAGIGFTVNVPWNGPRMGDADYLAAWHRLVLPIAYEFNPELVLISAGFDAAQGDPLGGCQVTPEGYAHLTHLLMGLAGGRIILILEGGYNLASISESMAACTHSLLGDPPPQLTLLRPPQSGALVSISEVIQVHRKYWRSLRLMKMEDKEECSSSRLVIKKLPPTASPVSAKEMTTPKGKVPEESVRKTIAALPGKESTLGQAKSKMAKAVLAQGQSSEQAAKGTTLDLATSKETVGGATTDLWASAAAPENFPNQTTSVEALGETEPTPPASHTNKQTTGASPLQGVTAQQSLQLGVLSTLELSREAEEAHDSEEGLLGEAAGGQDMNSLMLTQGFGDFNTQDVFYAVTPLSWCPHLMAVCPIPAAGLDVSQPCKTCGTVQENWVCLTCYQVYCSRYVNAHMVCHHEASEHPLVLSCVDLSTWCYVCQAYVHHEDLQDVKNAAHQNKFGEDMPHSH

Row | Compound | growth inhibition (GI) (B16 [1]) | GI50 (B16 [1]) [µM] | Ratio IC50 (Homo sapiens) | inhibition (B16 [2]) | inhibition (B16 [3]) | inhibition (B16 [4]) | inhibition [5]
1 | CCCCN(C(=O)NCc1ccc(C(=O)NO)cc1)c1ccccc1 | Dose-dependent effect | 65.8 | 322 | – | – | – | –
2 | COc1ccccc1NC(=O)N(CCc1c[nH]c2ccccc12)Cc1ccc(C(=O)NO)cc1 | Dose-dependent effect | 30.4 | 19 | – | – | – | –
3 | CCN(C(=O)NCc1ccc(C(=O)NO)cc1)c1ccccc1 | Dose-dependent effect | > 100 | 330 | – | – | – | –
4 | COc1ccccc1NC(=O)NCc1ccc(C(=O)NO)cc1 | – | – | 2 | – | – | – | –
5 | COCCN(Cc1ccc(C(=O)NO)cc1)C(=O)Nc1ccccc1 | Dose-dependent effect | – | 243 | – | – | – | –
6 | COCCCN(Cc1ccc(C(=O)NO)cc1)C(=O)Nc1ccccc1 | Dose-dependent effect | 22.2 | 443 | – | – | – | –
7 | CCCCN(Cc1ccc(C(=O)NO)cc1)C(=O)Nc1ccccc1 | Dose-dependent effect | – | – | Active | Active | inactive | Dose-dependent effect
8 | COc1ccccc1NC(=O)N(CCCO)Cc1ccc(C(=O)NO)cc1 | Dose-dependent effect | > 100 | 803 | – | – | – | –
9 | CN1CCc2c(c3ccccc3n2Cc2ccc(C(=O)NO)cc2)C1 [TUBASTATIN A] | Dose-dependent effect | 40.5 | – | – | – | – | –
10 | O=C(NO)c1ccc(CN(CCc2ccccc2)C(=O)Nc2ccccc2)cc1 | Dose-dependent effect | 15.4 | 222 | – | – | – | –
11 | COc1ccccc1NC(=O)N(CCCN(C)C)Cc1ccc(C(=O)NO)cc1 | Dose-dependent effect | 75.3 | 6 | – | – | – | –
12 | COCCCN(C(=O)NCc1ccc(C(=O)NO)cc1)c1ccccc1 | Dose-dependent effect | > 100 | 226 | – | – | – | –
13 | COc1ccccc1NC(=O)N(CCc1ccc(O)cc1)Cc1ccc(C(=O)NO)cc1 | Dose-dependent effect | 18.4 | 292 | – | – | – | –
14 | Cc1[nH]c2ccccc2c1CCNCc1ccc(/C=C/C(=O)NO)cc1 [PANOBINOSTAT] | Dose-dependent effect | 0.15 | – | – | – | – | –

Source: ChEMBL document CHEMBL2176914, “Selective histone deacetylase 6 inhibitors bearing substituted urea linkers inhibit melanoma cell growth” (J Med Chem, 2012)
